From patent publication US20130005728A1, “SUBSTITUTED PYRIMIDINES AS PROSTAGLANDIN D2 RECEPTOR ANTAGONISTS” (AVENTIS PHARMACEUTICALS INC., priority 2010, published 2013)
Counter-ions that a name gives are not always drawn. Like-named read-outs stand apart in the source and are kept apart here.

Target: T1, human prostaglandin D2 receptor (DP) (DP1) (Homo sapiens, UniProt Q13258)
T1 construct: endogenous in cells; host or cells: human platelets in platelet-rich plasma from donor blood
T1 sequence (Q13258 1-359): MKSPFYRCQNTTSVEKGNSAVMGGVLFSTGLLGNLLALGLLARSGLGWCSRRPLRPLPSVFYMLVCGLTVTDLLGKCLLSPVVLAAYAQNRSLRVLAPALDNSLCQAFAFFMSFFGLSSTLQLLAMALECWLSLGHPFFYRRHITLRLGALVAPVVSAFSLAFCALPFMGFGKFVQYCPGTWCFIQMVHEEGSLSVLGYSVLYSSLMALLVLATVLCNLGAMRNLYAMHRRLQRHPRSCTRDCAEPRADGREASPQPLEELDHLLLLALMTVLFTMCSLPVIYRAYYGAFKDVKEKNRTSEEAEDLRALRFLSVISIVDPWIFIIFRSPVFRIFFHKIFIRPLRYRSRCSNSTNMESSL
Assay: Antagonist activity on BW245C-induced cAMP accumulation in human platelet rich plasma (hPRP) by HTRF cAMP assay
Type: cell-based
Conditions: inhibition of BW245C (25 nM)-induced cAMP accumulation in human platelet rich plasma
Text: Assessment of Antagonist Activities of Compounds on BW245C-induced cAMP Accumulation in Human Platelet Rich Plasma (hPRP) by HTRF cAMP Assay
The purpose of the assay is to assess compound antagonist activity at the human prostaglandin D2 receptor (DP) (DP1) in the presence of plasma proteins. DP is a Gs-protein coupled receptor, the activation of which induces cAMP accumulation. BW245C is a DP selective agonist. Therefore, by measuring inhibition of BW245C-induced 3′-5′-cyclic adenosine monophosphate (cAMP) accumulation in human platelet-rich plasma (PRP), the assay enables us to identify or confirm antagonist compounds at the human DP and/or IP receptors.
The principle of the assay is based on HTRF technology (Homogeneous Time-Resolved Fluorescence). The method is a competitive immunoassay between native cAMP produced by cells and the tracer cAMP labeled with the dye d2. The tracer is visualized by a monoclonal antibody anti-cAMP labeled with cryptate. The specific signal (i.e. energy transfer) is inversely related to the concentration of cAMP in the standards or samples. The assay was carried out using the cAMP HiRange HTRF kit from Cisbio (catalog number 62AM6PEB, 888-963-4567).
Preparation of Human Platelet Rich Plasma (hPRP): Human blood was obtained from sanofi-aventis on-site blood donor panel. The blood was gently transferred from the blood bag into a 50 ml centrifuge tube and centrifuged at 223×g (1000 rpm) for 15 minutes without break. The top layer (PRP) was aspirated slowly and transferred to a 250 ml centrifuge tube. The PRP was placed in the cell culture hood for approximately 30 minutes before use.
Preparation of IBMX: IBMX is a phosphodiesterase (PDE) inhibitor and is included in the assay to prevent breakdown of cAMP. 1M IBMX stock was prepared in DMSO. 20 μL of 1M IBMX stock was then added into 30 μL of DMSO to obtain a 400 mM IBMX DMSO solution. This was further diluted 1:50 in 0.9% sodium chloride to obtain an 8 mM IBMX working solution. The solution was sonicated for 60 minutes before use.
Preparation of BW245C: 10 mM BW245C stock was prepared in DMSO and aliquots were stored at −80° C. On the day of the assay, 10 mM BW245C stock was diluted 1 to 400 in DMSO to make a 25 μM solution. 100 μL of the 25 μM BW245C solution was added to 4900 μL of 0.9% sodium chloride to make a 500 nM working solution.
Dilution of compounds: 10 mM compound DMSO stock solutions were serially diluted 1:3 in DMSO in a 96-well plate to achieve 11 different concentrations ranging from 10 mM to 0.00017 mM. A further 1:20 dilution in 0.9% sodium chloride solution was carried out for each concentration to obtain working concentrations ranging from 500 μM to 0.0085 μM (11 points) for each compound. For positive and negative controls, DMSO (without compound) was diluted 1:20 in 0.9% sodium chloride solution.
Preparation of cAMP standards, cAMP-d2 and anti-cAMP cryptate (all in the assay kit): cAMP standard was reconstituted by adding distilled water according to the manufacturer's instruction (456 μL of water usually). The reconstituted cAMP standard was serially diluted 1:4 in 0.9% sodium chloride solution to achieve 11 different concentrations. cAMP-d2 was reconstituted by adding 2 mL of distilled water and then further diluting it in 8 mL of lysis buffer (in the kit). Anti-cAMP cryptate was reconstituted by adding 1.1 mL of distilled water and then further diluting it in 4.4 mL of lysis buffer.
Assay Procedure: In the assay, each compound was run in duplicate. The final assay volume was 50 μl in each well.
In the assay plate, 42 μL of platelet rich plasma (PRP) was added in each well. This was followed by the addition in each well of 2.5 μL of 8 mM IBMX (final concentration 400 μM) and 3 μL of diluted compound at varying concentrations (final concentrations ranging from 30,000 nM to 0.51 nM, 11 points for each compound). In the positive and negative control wells, 3 μL of diluted DMSO solution was added instead of compound. […]

[1] = compound tested as HCl salt, read-out: hPRP IC50 (as HCl salt)

Structure (SMILES) | IC50 (read-out: hPRP IC50) [µM] | IC50 [1] [µM]
COc1nc(NCCc2ccc(OC(F)(F)F)cc2)cc(N2CCOC(C(=O)O)C2)n1 (stereo not drawn) [Example 1, 4-{2-Methoxy-6-[2-(4-trifluoromethoxy-phenyl)-ethylamino]-pyrimidin-4-yl}-morpholine-2-carboxylic acid trifluoroacetate] | 0.01 | –
COc1nc(NCCc2ccc(OC(F)(F)F)cc2)cc(N2CCN(CC(=O)O)CC2)n1 [Example 2, (4-{2-Methoxy-6-[2-(4-trifluoromethoxy-phenyl)-ethylamino]-pyrimidin-4-yl}-piperazin-1-yl)-acetic acid tristrifluoroacetate] | 0.368 | –
COc1nc(NCCc2ccc(OC(F)(F)F)cc2)cc(N2CCCCC2C(=O)O)n1 (stereo not drawn) [Example 3, 1-{2-Methoxy-6-[2-(4-trifluoromethoxy-phenyl)-ethylamino]-pyrimidin-4-yl}-piperidine-2-carboxylic acid trifluoroacetate] | – | 0.885
COc1nc(NCCc2ccc(OC(F)(F)F)cc2)cc(N2CCCCC2CC(=O)O)n1 (stereo not drawn) [Example 4, (1-{2-Methoxy-6-[2-(4-trifluoromethoxy-phenyl)-ethylamino]-pyrimidin-4-yl}-piperidin-2-yl)-acetic acid trifluoroacetate] | 0.032 | –
COc1nc(NCCc2ccc(OC(F)(F)F)cc2)cc(N2CCOCC2)n1 [Example 5, (2-Methoxy-6-morpholin-4-yl-pyrimidin-4-yl)-[2-(4-trifluoromethoxy-phenyl)-ethyl]-amine] | – | 1.18
CCOC(=O)N1CCN(c2cc(NCCc3ccc(OC(F)(F)F)cc3)nc(OC)n2)CC1 [Example 6] | 0.609 | –

The remaining lines, values ahead:

IC50 (read-out: hPRP IC50) [µM] | IC50 [1] [µM] | Structure (SMILES)
0.436 | – | COc1nc(NCCc2ccc(OC(F)(F)F)cc2)cc(N2C[C@@H](C(=O)O)[C@H](c3ccccc3OC)C2)n1 (racemic) [Example 15, (±)-trans-4-(2-Methoxy-phenyl)-1-{2-methoxy-6-[2-(4-trifluoromethoxy-phenyl)-ethylamino]-pyrimidin-4-yl}-pyrrolidine-3-carboxylic acid]
0.317 | – | COc1nc(NCCc2ccc(OC(F)(F)F)cc2)cc(N2CCC(C)(C(=O)O)C2)n1 (stereo not drawn) [Example 7, 1-{2-Methoxy-6-[2-(4-trifluoromethoxy-phenyl)-ethylamino]-pyrimidin-4-yl}-3-methyl-pyrrolidine-3-carboxylic acid]
0.376 | – | COc1nc(NCCc2ccc(OC(F)(F)F)cc2)cc(N2C[C@@H](C(=O)O)[C@H](C(C)C)C2)n1 [Example 8, (3S,4S)-4-Isopropyl-1-{2-methoxy-6-[2-(4-trifluoromethoxy-phenyl)-ethylamino]-pyrimidin-4-yl}-pyrrolidine-3-carboxylic acid]
0.575 | – | COc1nc(NCCc2ccc(OC(F)(F)F)cc2)cc(N2CCC(C(=O)O)C2)n1 (stereo not drawn) [Example 9, 1-{2-Methoxy-6-[2-(4-trifluoromethoxy-phenyl)-ethylamino]-pyrimidin-4-yl}-pyrrolidine-3-carboxylic acid]
0.028 | – | COc1nc(NCCc2ccc(OC(F)(F)F)cc2)cc(N2C[C@H](C(=O)O)[C@@H](c3ccccc3)C2)n1 [Example 10, (3R,4S)-1-{2-Methoxy-6-[2-(4-trifluoromethoxy-phenyl)-ethylamino]-pyrimidin-4-yl}-4-phenyl-pyrrolidine-3-carboxylic acid]
0.409 | – | COc1ccc([C@H]2CN(c3cc(NCCc4ccc(OC(F)(F)F)cc4)nc(OC)n3)C[C@@H]2C(=O)O)cc1 [Example 11, (3R,4S)-4-(4-Methoxy-phenyl)-1-{2-methoxy-6-[2-(4-trifluoromethoxy-phenyl)-ethylamino]-pyrimidin-4-yl}-pyrrolidine-3-carboxylic acid]
1.22 | – | COc1nc(NCCc2ccc(OC(F)(F)F)cc2)cc(N2CCc3ccccc3C2)n1 [Example 12, [6-(3,4-Dihydro-1H-isoquinolin-2-yl)-2-methoxy-pyrimidin-4-yl]-[2-(4-trifluoromethoxy-phenyl)-ethyl]-amine trifluoroacetic acid salt]
0.397 | – | COc1nc(NCCc2ccc(OC(F)(F)F)cc2)cc(N2CCN(c3ccccc3)CC2)n1 [Example 13, [2-Methoxy-6-(4-phenyl-piperazin-1-yl)-pyrimidin-4-yl]-[2-(4-trifluoromethoxy-phenyl)-ethyl]-amine]
0.713 | – | COc1nc(NCCc2ccc(OC(F)(F)F)cc2)cc(N2CC[C@H](CC(=O)O)C2)n1 [Example 14, ((R)-1-{2-Methoxy-6-[2-(4-trifluoromethoxy-phenyl)-ethylamino]-pyrimidin-4-yl}-pyrrolidin-3-yl)-acetic acid]
